According to patent publication US9862749B2, “Analogue peptide CMA3 derived from CM-MA peptide and use thereof” (Industry-Academic Cooperation Foundation, Chosun University, priority 2014, dated 2018):
≈ marks a conversion by molar mass, not a printed value. Peptide text beside a SMILES is read from it.

Columns and labels:
Format in all cases: cell-based
Staphylococcus aureus = settings: 12 h
Protocol: (§1) To compare the antibacterial activities among those peptides prepared by the method of Example 1 of the invention, the inventors measured MIC (minimal inhibitory concentration) of the peptide which is the minimum concentration for staying without being broken.
(§2) Particularly, the strains listed in Table 2 were purchased and cultured in each medium composed as instructed until the mid-log phase. The cells were diluted at the density of 5×10^5 cells/100 μl, which were then inoculated in a micro-titrate plate (Nunc, USA). Then, the CMA1, CMA2, CMA3, CMA4, CMA5, or CMA6 peptide synthesized in Example 1 was ½ fold diluted in each 96 well plate, and then added to the plate, followed by culture at 37° C. for 12 hours. OD620 was measured with a micro-titrate plate reader (Merck Elisa reader, Germany) to determine MIC for each strain. As for the control, the mother peptide CM-MA was treated by the same manner as described above and MIC was also determined.

[1] = system: Staphylococcus epidermidis; settings: 12 h
Protocol: as §1, §2

Escherichia coli = settings: 12 h
Protocol: as §1, §2

Salmonella typhimurium = settings: 12 h
Protocol: as §1, §2

Pseudomonas aeruginosa = settings: 12 h
Protocol: as §1, §2

Listeria monocytogenes = settings: 12 h
Protocol: as §1, §2

in vitro = settings: human, HaCaT cells (human keratinocyte cell line)
Protocol: To investigate the cytotoxicity of each peptide prepared by the method of Example 1 to human keratinocyte cell line (HaCaT cell line, Dr. N E. Fusenig, Heidelberg, Germany) was measured.
Particularly, the HaCaT cell line cultured in DMEM supplemented with 10% FBS (Fetal Bovine Serum) was distributed in a 96-well plate at the density of 3×10^3 cells/well, followed by culture for 24 hours. The CM-MA, CMA1, CMA2, CMA3, CMA4, CMA5, or CMA6 peptide prepared in Example 1 was treated to each well at the concentration of 12.5, 25.0, 50.0, 100.0, or 200.0 μM/well, followed by reaction in a 5% CO2 incubator for 24 hours. Upon completion of the culture, 20 ul of the reaction solution containing 5 mg/ml MTT (Thiazolyl Blue Tetrazolium Bromide) dissolved in PBS (phosphate buffered saline) was added to each well, followed by reaction for 4 hours. Then, the supernatant was eliminated.

Structure (SMILES) | Minimal inhibitory concentration (Staphylococcus aureus) | Minimal inhibitory concentration [1] | Minimal inhibitory concentration (Escherichia coli) | Minimal inhibitory concentration (Salmonella typhimurium) | Minimal inhibitory concentration (Pseudomonas aeruginosa) | Minimal inhibitory concentration (Listeria monocytogenes) | viability at 24 h, 200 µM (in vitro)
CC[C@H](C)[C@H](NC(=O)CNC(=O)[C@@H](NC(=O)[C@H](CCCCN)NC(=O)[C@H](CCCCN)NC(=O)[C@H](Cc1ccccc1)NC(=O)[C@H](CC(C)C)NC(=O)[C@H](CCCCN)NC(=O)[C@H](Cc1c[nH]c2ccccc12)NC(=O)[C@@H](N)CCCCN)[C@@H](C)CC)C(=O)NCC(=O)N[C@@H](CCCCN)C(=O)N[C@@H](Cc1ccccc1)C(=O)N[C@@H](CC(C)C)C(=O)N[C@@H](Cc1c[nH]cn1)C(=O)N[C@@H](CO)C(=O)N[C@@H](C)C(=O)N[C@@H](CCCCN)C(=O)N[C@@H](CCCCN)C(=O)N[C@@H](Cc1ccccc1)C(N)=O [CA-MA, reference compound] (H-KWKLFKKIGIGKFLHSAKKF-NH2) | 8 µM (≈ 19.2 µg/mL) | 8 µM (≈ 19.2 µg/mL) | 2 µM (≈ 4.81 µg/mL) | 1 µM (≈ 2.4 µg/mL) | 1 µM (≈ 2.4 µg/mL) | 0.5 µM (≈ 1.2 µg/mL) | 1.4%
CC[C@H](C)[C@H](NC(=O)CNC(=O)[C@@H](NC(=O)[C@H](CCCCN)NC(=O)[C@H](CCCCN)NC(=O)[C@H](Cc1ccccc1)NC(=O)[C@H](CC(C)C)NC(=O)[C@H](CCCCN)NC(=O)[C@H](Cc1c[nH]c2ccccc12)NC(=O)[C@@H](N)CCCCN)[C@@H](C)CC)C(=O)NCC(=O)N[C@@H](CCCCN)C(=O)N[C@@H](Cc1c[nH]cn1)C(=O)N[C@@H](Cc1ccccc1)C(=O)N[C@@H](CC(C)C)C(=O)N[C@@H](CO)C(=O)N[C@@H](C)C(=O)N[C@@H](CCCCN)C(=O)N[C@@H](CCCCN)C(=O)N[C@@H](Cc1ccccc1)C(N)=O [CMA1] (H-KWKLFKKIGIGKHFLSAKKF-NH2) | 16 µM (≈ 38.5 µg/mL) | 32 µM (≈ 76.9 µg/mL) | 8 µM (≈ 19.2 µg/mL) | 1 µM (≈ 2.4 µg/mL) | 8 µM (≈ 19.2 µg/mL) | 4 µM (≈ 9.62 µg/mL) | 51.1%
CC[C@H](C)[C@H](NC(=O)CNC(=O)[C@@H](NC(=O)[C@H](CCCCN)NC(=O)[C@H](CCCCN)NC(=O)[C@H](Cc1ccccc1)NC(=O)[C@H](CC(C)C)NC(=O)[C@H](CCCCN)NC(=O)[C@H](Cc1c[nH]c2ccccc12)NC(=O)[C@@H](N)CCCCN)[C@@H](C)CC)C(=O)NCC(=O)N[C@@H](CCCCN)C(=O)N[C@@H](Cc1ccccc1)C(=O)N[C@@H](CC(C)C)C(=O)N[C@@H](CO)C(=O)N[C@@H](C)C(=O)N[C@@H](Cc1c[nH]cn1)C(=O)N[C@@H](CCCCN)C(=O)N[C@@H](CCCCN)C(=O)N[C@@H](Cc1ccccc1)C(N)=O [CMA2] (H-KWKLFKKIGIGKFLSAHKKF-NH2) | 32 µM (≈ 76.9 µg/mL) | 16 µM (≈ 38.5 µg/mL) | 2 µM (≈ 4.81 µg/mL) | 1 µM (≈ 2.4 µg/mL) | 4 µM (≈ 9.62 µg/mL) | 1 µM (≈ 2.4 µg/mL) | 
CC[C@H](C)[C@H](NC(=O)CNC(=O)[C@@H](NC(=O)[C@H](Cc1c[nH]cn1)NC(=O)[C@H](CCCCN)NC(=O)[C@H](CCCCN)NC(=O)[C@H](CC(C)C)NC(=O)[C@H](CCCCN)NC(=O)[C@H](Cc1c[nH]c2ccccc12)NC(=O)[C@@H](N)CCCCN)[C@@H](C)CC)C(=O)NCC(=O)N[C@@H](CCCCN)C(=O)N[C@@H](Cc1c[nH]cn1)C(=O)N[C@@H](Cc1ccccc1)C(=O)N[C@@H](CC(C)C)C(=O)N[C@@H](CO)C(=O)N[C@@H](C)C(=O)N[C@@H](CCCCN)C(=O)N[C@@H](CCCCN)C(=O)N[C@@H](Cc1ccccc1)C(N)=O [CMA3] (H-KWKLKKHIGIGKHFLSAKKF-NH2; N-terminus assumed) | 32 µM (≈ 76.6 µg/mL) | 64 µM (≈ 153 µg/mL) | 4 µM (≈ 9.58 µg/mL) | 1 µM (≈ 2.39 µg/mL) | 8 µM (≈ 19.2 µg/mL) | 2 µM (≈ 4.79 µg/mL) | 92.4%
CC[C@H](C)[C@H](NC(=O)CNC(=O)[C@@H](NC(=O)[C@H](CCCCN)NC(=O)[C@H](CCCCN)NC(=O)[C@H](CC(C)C)NC(=O)[C@H](Cc1c[nH]cn1)NC(=O)[C@H](CCCCN)NC(=O)[C@H](Cc1c[nH]c2ccccc12)NC(=O)[C@@H](N)CCCCN)[C@@H](C)CC)C(=O)NCC(=O)N[C@@H](CCCCN)C(=O)N[C@@H](Cc1ccccc1)C(=O)N[C@@H](CC(C)C)C(=O)N[C@@H](CO)C(=O)N[C@@H](C)C(=O)N[C@@H](Cc1c[nH]cn1)C(=O)N[C@@H](CCCCN)C(=O)N[C@@H](CCCCN)C(=O)N[C@@H](Cc1ccccc1)C(N)=O [CMA4] (H-KWKHLKKIGIGKFLSAHKKF-NH2) | 32 µM (≈ 76.6 µg/mL) | 32 µM (≈ 76.6 µg/mL) | 4 µM (≈ 9.58 µg/mL) | 1 µM (≈ 2.39 µg/mL) | 16 µM (≈ 38.3 µg/mL) | 2 µM (≈ 4.79 µg/mL) | 64.5%
CC[C@H](C)[C@H](NC(=O)CNC(=O)[C@@H](NC(=O)[C@H](CCCCN)NC(=O)[C@H](CCCCN)NC(=O)[C@H](CC(C)C)NC(=O)[C@H](Cc1c[nH]cn1)NC(=O)[C@H](CCCCN)NC(=O)[C@H](Cc1c[nH]c2ccccc12)NC(=O)[C@@H](N)CCCCN)[C@@H](C)CC)C(=O)NCC(=O)N[C@@H](CCCCN)C(=O)N[C@@H](Cc1c[nH]cn1)C(=O)N[C@@H](Cc1ccccc1)C(=O)N[C@@H](CC(C)C)C(=O)N[C@@H](CO)C(=O)N[C@@H](C)C(=O)N[C@@H](CCCCN)C(=O)N[C@@H](CCCCN)C(=O)N[C@@H](Cc1ccccc1)C(N)=O [CMA5] (H-KWKHLKKIGIGKHFLSAKKF-NH2) | 32 µM (≈ 76.6 µg/mL) | 64 µM (≈ 153 µg/mL) | 8 µM (≈ 19.2 µg/mL) | 1 µM (≈ 2.39 µg/mL) | 16 µM (≈ 38.3 µg/mL) | 2 µM (≈ 4.79 µg/mL) | 78.9%
CC[C@H](C)[C@H](NC(=O)CNC(=O)[C@@H](NC(=O)[C@H](CCCCN)NC(=O)[C@H](CCCCN)NC(=O)[C@H](Cc1ccccc1)NC(=O)[C@H](CC(C)C)NC(=O)[C@H](CCCCN)NC(=O)[C@H](Cc1c[nH]c2ccccc12)NC(=O)[C@@H](N)CCCCN)[C@@H](C)CC)C(=O)NCC(=O)N[C@@H](CCCCN)C(=O)N[C@@H](Cc1ccccc1)C(=O)N[C@@H](CC(C)C)C(=O)N[C@@H](CCC(N)=O)C(=O)N[C@@H](CO)C(=O)N[C@@H](C)C(=O)N[C@@H](CCCCN)C(=O)N[C@@H](CCCCN)C(=O)N[C@@H](Cc1ccccc1)C(N)=O [CMA6] (H-KWKLFKKIGIGKFLQSAKKF-NH2; N-terminus assumed) | 16 µM (≈ 38.3 µg/mL) | 8 µM (≈ 19.2 µg/mL) | 4 µM (≈ 9.58 µg/mL) | 1 µM (≈ 2.4 µg/mL) | 4 µM (≈ 9.58 µg/mL) | 1 µM (≈ 2.4 µg/mL) | 
